Source: patent US20240325420A1, “COMPOSITION INCLUDING PAEONIFLORIN FOR PREVENTION OR TREATMENT OF CACHEXIA AND MUSCLE LOSS” (CHUNG ANG UNIVERSITY INDUSTRY ACADEMIC COOPERATION …, priority 2021, published 2024)

Legend:
Assay type in all cases: in vivo
[1] = system: C57BL/6 mice with cisplatin-induced cachexia; assay: Body weight and muscle mass in cisplatin-treated C57BL/6 mice
Method: (§1) The animal experiments were performed in accordance with internationally accepted principles for laboratory animal use and care, and the corresponding study protocol was reviewed and approved by the Institutional Animal Care and Use Committee (IACUC) at Chung-Ang University (approval #2021-00022). Four-week-old female C57BL/6 mice and Balb/c mice were purchased from Raonbio Inc. (Yongin, Korea) and were provided with standard laboratory diet and water ad libitum in the animal facility of Chung-Ang University. After a week of acclimation, the mice were intraperitoneally injected three times with 3 mg/kg/day cisplatin, suspended in 200 μL saline, every other day. Control group mice (sham-treated mice) were injected with the same volume of saline under the same regimen. The cisplatin-treated groups were orally administered paeoniflroin (Pae) or megestrol acetate (MA), suspended in 200 μL distilled water, every day until euthanasia.
(§2) Specifically, the cisplatin-treated groups were orally administered paeoniflorin (prepared in Example 1) at a dose of 5 (Pae 5 group), 10 (Pae 10 group), or 20 (Pae 20 group) mg/kg once daily for 9 days. The comparative drug-treated group was orally administered megestrol acetate (MA), which is currently most commonly prescribed for cancer cachexia patients in clinical practice, at a dose of 160 mg/kg (=800 mg [daily human dose]/60 kg [average human body weight]×12 [dose equivalent factor based on human:mouse body surface area ratio], once daily for 9 days.
(§3) In addition, cisplatin-treated mice orally administered the same volume of distilled water were designated as the vehicle group. After completion of drug treatment, the mice of each group were euthanized with 10 mg/kg alfaxalone (Jurox, Rutherford, Australia). Blood was collected in test tubes containing EDTA, and centrifuged, and plasma was separated therefrom. Gastrocnemius and quadriceps skeletal muscles were dissected and weighed. The skeletal muscles were rapidly frozen in liquid nitrogen to be used for RT-qPCR, Western blotting, and ELISA.

[2] = system: Balb/c mice with cisplatin-induced cachexia; assay: Body weight and muscle mass in cisplatin-treated Balb/c mice
Method: as §1, §2, §3

GDF-15 = GDF-15 by ELISA in C57BL/6 mice with Lewis lung carcinoma-induced cachexia; conditions: Lewis lung carcinoma-injected, paeoniflorin orally for 9 days, FIG. 18
Method: Each mouse of the control group was injected subcutaneously with 100 μL of saline solution. For the cachexia-induced groups, Lewis lung carcinoma cells (C57BL/6 mice) or colon-26 carcinoma cells (Balb/c mice) were injected subcutaneously into the flank area of each mouse at a dose of 10^6 cells/100 μL/mouse. […] After completion of 9 days of administration, the muscle strength of the mice was measured using a grip strength test device (Bioseb, USA), and the endurance of the mice was measured using a treadmill device (Columbus Instrument, USA).
After completion of the experiment, the mice were euthanized, blood was collected therefrom, the body weight excluding tumors, and the weights of the hind limb gastrocnemius muscle and quadriceps muscle were measured. GDF-15 in the serum was quantified by ELISA.
After oral administration of paeoniflorin to the tumor-induced mice for 9 days, blood was collected from the mice, and the plasma concentration of GDF-15 protein was analyzed by ELISA.

[3] = system: C57BL/6 mice with cisplatin-induced cachexia; assay: Skeletal muscle function test in cisplatin-treated C57BL/6 mice; conditions: oral paeoniflorin 10 or 20 mg/kg
Method: as §1
Specifically, the cisplatin-treated groups were orally administered paeoniflorin (prepared in Example 1) at a dose of 5 (Pae 5 group), 10 (Pae 10 group), or 20 (Pae 20 group) mg/kg once daily for 9 days. […]
A skeletal muscle function test was conducted one day before euthanasia. Muscle strength of each mouse was measured by the grip strength of front paws, and endurance of each mouse was measured by treadmill running time until exhaustion. Motor coordination was measured by retention time on a rotating cylinder with a diameter of 3 cm (Castro and Kuang, 2017). The grip strength of each mouse was measured using a grip strength meter (Bio-GS3, Bioseb, Vitrolles, France). The treadmill running time of each mouse was measured on a treadmill (Exer-3/6, Columbus Instruments, […], USA). The ability of each mouse to stay on a rotating cylinder was measured using a rotarod apparatus (Panlab, Barcelona, Spain).

[4] = system: muscle-specific ubiquitin E3 ligases (MuRF1 and MAFbx); assay: mRNA levels of MuRF1 and MAFbx in gastrocnemius muscle by real-time PCR; conditions: C57BL/6 mice, cisplatin-treated, Pae 10 and Pae 20 vs vehicle, FIG. 5
Method: as §3
Total RNA was isolated from skeletal muscle using Qiazol (Qiagen, Germany), and then the mRNA levels of pro-inflammatory cytokines and muscle-specific ubiquitin E3 ligases (MuRF1 and MAFbx) were measured by real-time PCR.
In order to measure the mRNA and protein levels of major factors involved in muscle loss, muscle contraction, and muscle differentiation, the mRNA and protein levels in the skeletal muscle tissues from C57BL/6 mice were measured by real-time PCR and Western blotting.

TNF-α = assay: Plasma TNF-α by ELISA in mice with cisplatin-induced cachexia; conditions: C57B/6 mice; cisplatin plus paeoniflorin-treated group vs cisplatin-treated group; FIG. 13A
Method: as §3
The levels of TNF-α and interleukin (IL)-6 were measured using respective mouse ELISA kits (Invitrogen, Waltham, MA, USA). IL-1β and GDF-15 levels were measured using respective Quantikine ELISA kits (R&D Systems, Minneapolis, MN, USA).
The protein concentration of the pro-inflammatory cytokine TNF-α in the plasma of mice was analyzed by ELISA.

NF-κB = assay: Target DNA binding activity of NF-κB in skeletal muscle (TransAM NF-κB ELISA); conditions: gastrocnemius muscle; C57BL/6 mice; cisplatin-treated; Pae 10 and Pae 20; FIG. 12C
Method: Nuclear and cytoplasmic lysates were prepared from the skeletal muscle using a nuclear extraction kit (Active Motif, Carlsbad, CA, USA). The protein concentration of both lysates was measured using the BCA Protein Assay Kit (Pierce). Anti-NF-κB p65 was used as the primary antibody, and 10 μg of protein per lysate was analyzed by Western blotting. TBP (TATA box-binding protein) and β-actin were as controls for the nuclear and cytosolic lysates, respectively. The target DNA binding activity of NF-κB was measured using the TransAM NF-κB ELISA kit (Active Motif, USA).

target DNA binding activity of NF-κB (NF-κB): decreased
Structure (SMILES): C[C@@]12C[C@@]3(O)O[C@@H](O1)[C@]1(COC(=O)c4ccccc4)[C@H]3C[C@@]12O[C@@H]1O[C@H](CO)[C@@H](O)[C@H](O)[C@H]1O [paeoniflorin]
cisplatin-induced weight loss (body weight) ([1]; cisplatin 3 mg/kg/day i.p. three times, paeoniflorin 10 or 20 mg/kg orally daily for 9 days, vs vehicle, FIG. 1A): attenuated
weight of gastrocnemius muscle (skeletal muscle mass) ([1]; cisplatin-treated, paeoniflorin 10 or 20 mg/kg orally daily, FIG. 1B): restored
weight of quadriceps muscle (skeletal muscle mass) ([1]; cisplatin-treated, paeoniflorin 10 or 20 mg/kg orally daily, FIG. 1C): restored
body weight ([2]; Pae 5, Pae 10, Pae 20 (mg/kg orally daily) vs negative control group, FIG. 2A): increased
weight of gastrocnemius muscle ([2]; Pae 5, Pae 10, Pae 20 vs negative control group, FIG. 2B): increased
weight of quadriceps muscle ([2]; Pae 5, Pae 10, Pae 20 vs negative control group, FIG. 2C): increased
serum concentration of GDF-15 (GDF-15): significantly decreased
grip strength (muscle strength) ([3]; FIG. 3A): significantly restored
treadmill running time (endurance) ([3]; FIG. 3B): significantly restored
rotarod retention time (motor coordination) ([3]; FIG. 3C): significantly restored
MAFbx mRNA level [4]: decreased
MuRF1 mRNA level [4]: decreased
plasma concentration of TNF-α (TNF-α): significantly decreased
